Experimental data published in ChEMBL document CHEMBL2073947, “The human multidrug resistance protein MRP4 functions as a prostaglandin efflux transporter and is inhibited by nonsteroidal antiinflammatory drugs” (Proc Natl Acad Sci U S A, 2003).
Blank lines part the entries; values can stand above or below the molecule they belong to.

How the values were obtained:
Set-up in all cases: scale not given: the % may be the effect or the level left
[1] = target: T1, ATP-binding cassette sub-family C member 4 (Homo sapiens, UniProt O15439); assay: TP_TRANSPORTER: inhibition of E217betaG in the presence of Rofecoxib at a concentration of 100uM in membrane vesicles from MRP4-expressing Sf9 cells; assay type: functional, cell membranes, Membrane vesicle; conditions: sf9, 100 µM
T1 sequence (O15439 whole entry): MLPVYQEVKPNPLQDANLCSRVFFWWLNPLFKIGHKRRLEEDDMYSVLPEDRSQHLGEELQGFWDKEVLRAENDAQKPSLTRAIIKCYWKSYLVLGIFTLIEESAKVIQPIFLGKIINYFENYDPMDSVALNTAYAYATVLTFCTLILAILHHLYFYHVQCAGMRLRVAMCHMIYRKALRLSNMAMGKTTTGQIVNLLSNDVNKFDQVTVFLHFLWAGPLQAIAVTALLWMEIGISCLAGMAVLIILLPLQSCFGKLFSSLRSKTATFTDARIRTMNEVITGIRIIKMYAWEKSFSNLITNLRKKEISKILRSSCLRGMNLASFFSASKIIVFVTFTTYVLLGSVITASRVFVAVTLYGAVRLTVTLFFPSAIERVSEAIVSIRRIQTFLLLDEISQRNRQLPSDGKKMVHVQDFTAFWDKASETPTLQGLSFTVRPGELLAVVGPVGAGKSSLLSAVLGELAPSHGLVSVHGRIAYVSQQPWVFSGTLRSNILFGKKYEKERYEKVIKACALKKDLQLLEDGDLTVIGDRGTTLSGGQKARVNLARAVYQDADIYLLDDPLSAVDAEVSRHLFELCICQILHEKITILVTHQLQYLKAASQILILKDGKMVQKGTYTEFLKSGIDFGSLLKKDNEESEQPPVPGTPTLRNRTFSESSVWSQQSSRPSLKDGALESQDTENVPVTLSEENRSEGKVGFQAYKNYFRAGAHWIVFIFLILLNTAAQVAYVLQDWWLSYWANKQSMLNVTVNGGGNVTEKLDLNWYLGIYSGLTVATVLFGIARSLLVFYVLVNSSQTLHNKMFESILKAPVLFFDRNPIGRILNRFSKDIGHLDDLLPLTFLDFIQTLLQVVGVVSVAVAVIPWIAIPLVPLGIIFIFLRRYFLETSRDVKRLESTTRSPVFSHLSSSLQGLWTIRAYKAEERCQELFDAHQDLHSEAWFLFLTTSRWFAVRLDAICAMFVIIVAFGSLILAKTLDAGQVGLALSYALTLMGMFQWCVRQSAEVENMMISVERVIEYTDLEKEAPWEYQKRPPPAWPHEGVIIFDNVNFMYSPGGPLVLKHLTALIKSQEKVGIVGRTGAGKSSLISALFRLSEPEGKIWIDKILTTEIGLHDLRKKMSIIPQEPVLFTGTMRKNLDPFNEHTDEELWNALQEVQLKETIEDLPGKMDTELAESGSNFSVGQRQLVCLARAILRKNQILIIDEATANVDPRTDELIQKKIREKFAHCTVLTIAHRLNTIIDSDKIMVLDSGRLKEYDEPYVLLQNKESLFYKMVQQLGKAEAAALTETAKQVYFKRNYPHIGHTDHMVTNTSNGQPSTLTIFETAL

[2] = target: Multidrug resistance associated protein (Homo sapiens) (UniProt Q96QA9); assay: TP_TRANSPORTER: inhibition of alaninyl-d4TMP by Prostaglandin A1 at a concentration of 20uM in membrane vesicle from MRP3-expressing Sf9 cells; assay type: functional, cell membranes
[3] = target: T2, MRP5 (ATP-binding cassette sub-family C member 5) (Homo sapiens, UniProt O15440); assay: TP_TRANSPORTER: inhibition of alaninyl-d4TMP by Prostaglandin A1 at a concentration of 20uM in membrane vesicle from MRP5-expressing HEK293 cells; assay type: functional, cell membranes; conditions: probe alaninyl-d4TMP, read-out: Activity
[4] = target: T1, ATP-binding cassette sub-family C member 4; assay: TP_TRANSPORTER: inhibition of alaninyl-d4TMP in the presence of Prostaglandin A1 at a concentration of 20uM in membrane vesicles from MRP4-expressing Sf9 cells; assay type: functional, cell membranes, Membrane vesicle; conditions: sf9, 20 µM
[5] = target: T2, MRP5 (ATP-binding cassette sub-family C member 5); assay: TP_TRANSPORTER: inhibition of alaninyl-d4TMP by Prostaglandin E2 at a concentration of 20uM in membrane vesicle from MRP5-expressing HEK293 cells; assay type: functional, cell membranes; conditions: membrane vesicles from MRP5-expressing HEK293 cells, probe alaninyl-d4TMP, read-out: Activity
[6] = target: Multidrug resistance-associated protein 1 (Homo sapiens, UniProt P33527); assay: TP_TRANSPORTER: inhibition of E217betaG in the presence of Diclofenac at a concentration of 100uM in membrane vesicles from MRP1-expressing Sf9 cells; assay type: functional, cell membranes, Membrane vesicle; conditions: sf9, 100 µM
[7] = target: T3, MRP4 (ATP-binding cassette sub-family C member 4) (Homo sapiens, UniProt O15439); assay: TP_TRANSPORTER: inhibition of E217betaG in the presence of Diclofenac at a concentration of 100uM in membrane vesicles from MRP4-expressing Sf9 cells; assay type: functional, cell membranes, Membrane vesicle; conditions: probe E217betaG, read-out: Activity
T3 sequence (O15439 whole entry): T1 sequence (O15439 whole entry)

[8] = target: T1, ATP-binding cassette sub-family C member 4; assay: TP_TRANSPORTER: inhibition of E217betaG in the presence of Ketoprofen at a concentration of 50uM in membrane vesicles from MRP4-expressing Sf9 cells; assay type: functional, cell membranes, Membrane vesicle; conditions: sf9, 50 µM
[9] = target: T1, ATP-binding cassette sub-family C member 4; assay: TP_TRANSPORTER: inhibition of alaninyl-d4TMP in the presence of Prostaglandin F2alpha at a concentration of 20uM in membrane vesicles from MRP4-expressing Sf9 cells; assay type: functional, cell membranes, Membrane vesicle; conditions: sf9, 20 µM
[10] = target: T2, MRP5 (ATP-binding cassette sub-family C member 5); assay: TP_TRANSPORTER: inhibition of alaninyl-d4TMP by Prostaglandin F2alpha at a concentration of 20uM in membrane vesicle from MRP5-expressing HEK293 cells; assay type: functional, cell membranes; conditions: membrane vesicles from MRP5-expressing HEK293 cells, probe alaninyl-d4TMP, read-out: Activity
[11] = target: T1, ATP-binding cassette sub-family C member 4; assay: TP_TRANSPORTER: inhibition of E217betaG in the presence of Celecoxib at a concentration of 50uM in membrane vesicles from MRP4-expressing Sf9 cells; assay type: functional, cell membranes, Membrane vesicle; conditions: sf9, 50 µM

T2 sequence (O15440 whole entry): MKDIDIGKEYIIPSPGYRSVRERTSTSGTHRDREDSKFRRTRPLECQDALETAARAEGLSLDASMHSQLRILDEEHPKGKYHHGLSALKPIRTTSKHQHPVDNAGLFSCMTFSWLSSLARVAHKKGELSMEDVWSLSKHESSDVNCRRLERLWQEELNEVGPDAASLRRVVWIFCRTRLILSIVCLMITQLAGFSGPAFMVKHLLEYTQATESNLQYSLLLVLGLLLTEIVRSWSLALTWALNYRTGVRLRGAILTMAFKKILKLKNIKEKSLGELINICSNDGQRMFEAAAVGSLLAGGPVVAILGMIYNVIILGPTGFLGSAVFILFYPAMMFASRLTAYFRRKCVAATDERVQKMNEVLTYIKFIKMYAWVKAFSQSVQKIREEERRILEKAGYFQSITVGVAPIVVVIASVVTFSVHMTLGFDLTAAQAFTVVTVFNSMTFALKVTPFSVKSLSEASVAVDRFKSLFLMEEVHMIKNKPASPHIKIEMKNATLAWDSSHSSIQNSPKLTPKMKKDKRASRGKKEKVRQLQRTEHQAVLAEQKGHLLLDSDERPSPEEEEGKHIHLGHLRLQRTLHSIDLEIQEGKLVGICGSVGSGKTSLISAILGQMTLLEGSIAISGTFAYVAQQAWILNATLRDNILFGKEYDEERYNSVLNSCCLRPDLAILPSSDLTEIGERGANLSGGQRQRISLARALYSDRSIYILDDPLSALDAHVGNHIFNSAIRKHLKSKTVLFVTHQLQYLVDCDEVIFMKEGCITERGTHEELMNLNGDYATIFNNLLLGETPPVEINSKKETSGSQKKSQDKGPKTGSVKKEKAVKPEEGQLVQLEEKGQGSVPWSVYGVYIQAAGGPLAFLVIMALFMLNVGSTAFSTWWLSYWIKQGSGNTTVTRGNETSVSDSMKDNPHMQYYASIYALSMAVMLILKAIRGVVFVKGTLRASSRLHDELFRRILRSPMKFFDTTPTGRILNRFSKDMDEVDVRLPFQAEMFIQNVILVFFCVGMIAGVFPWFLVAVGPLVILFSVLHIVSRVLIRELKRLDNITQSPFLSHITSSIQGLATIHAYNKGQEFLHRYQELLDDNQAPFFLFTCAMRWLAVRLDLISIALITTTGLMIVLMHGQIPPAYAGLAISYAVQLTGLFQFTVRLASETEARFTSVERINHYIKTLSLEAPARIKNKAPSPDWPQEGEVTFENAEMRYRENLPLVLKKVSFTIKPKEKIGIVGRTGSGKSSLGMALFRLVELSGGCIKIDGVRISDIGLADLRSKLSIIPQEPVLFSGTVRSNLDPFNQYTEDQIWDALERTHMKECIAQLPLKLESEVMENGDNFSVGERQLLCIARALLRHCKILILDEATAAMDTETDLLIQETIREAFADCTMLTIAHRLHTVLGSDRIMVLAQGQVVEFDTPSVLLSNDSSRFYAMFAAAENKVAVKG
Sequence of Multidrug resistance associated protein (Homo sapiens) (Q96QA9 as listed by the source): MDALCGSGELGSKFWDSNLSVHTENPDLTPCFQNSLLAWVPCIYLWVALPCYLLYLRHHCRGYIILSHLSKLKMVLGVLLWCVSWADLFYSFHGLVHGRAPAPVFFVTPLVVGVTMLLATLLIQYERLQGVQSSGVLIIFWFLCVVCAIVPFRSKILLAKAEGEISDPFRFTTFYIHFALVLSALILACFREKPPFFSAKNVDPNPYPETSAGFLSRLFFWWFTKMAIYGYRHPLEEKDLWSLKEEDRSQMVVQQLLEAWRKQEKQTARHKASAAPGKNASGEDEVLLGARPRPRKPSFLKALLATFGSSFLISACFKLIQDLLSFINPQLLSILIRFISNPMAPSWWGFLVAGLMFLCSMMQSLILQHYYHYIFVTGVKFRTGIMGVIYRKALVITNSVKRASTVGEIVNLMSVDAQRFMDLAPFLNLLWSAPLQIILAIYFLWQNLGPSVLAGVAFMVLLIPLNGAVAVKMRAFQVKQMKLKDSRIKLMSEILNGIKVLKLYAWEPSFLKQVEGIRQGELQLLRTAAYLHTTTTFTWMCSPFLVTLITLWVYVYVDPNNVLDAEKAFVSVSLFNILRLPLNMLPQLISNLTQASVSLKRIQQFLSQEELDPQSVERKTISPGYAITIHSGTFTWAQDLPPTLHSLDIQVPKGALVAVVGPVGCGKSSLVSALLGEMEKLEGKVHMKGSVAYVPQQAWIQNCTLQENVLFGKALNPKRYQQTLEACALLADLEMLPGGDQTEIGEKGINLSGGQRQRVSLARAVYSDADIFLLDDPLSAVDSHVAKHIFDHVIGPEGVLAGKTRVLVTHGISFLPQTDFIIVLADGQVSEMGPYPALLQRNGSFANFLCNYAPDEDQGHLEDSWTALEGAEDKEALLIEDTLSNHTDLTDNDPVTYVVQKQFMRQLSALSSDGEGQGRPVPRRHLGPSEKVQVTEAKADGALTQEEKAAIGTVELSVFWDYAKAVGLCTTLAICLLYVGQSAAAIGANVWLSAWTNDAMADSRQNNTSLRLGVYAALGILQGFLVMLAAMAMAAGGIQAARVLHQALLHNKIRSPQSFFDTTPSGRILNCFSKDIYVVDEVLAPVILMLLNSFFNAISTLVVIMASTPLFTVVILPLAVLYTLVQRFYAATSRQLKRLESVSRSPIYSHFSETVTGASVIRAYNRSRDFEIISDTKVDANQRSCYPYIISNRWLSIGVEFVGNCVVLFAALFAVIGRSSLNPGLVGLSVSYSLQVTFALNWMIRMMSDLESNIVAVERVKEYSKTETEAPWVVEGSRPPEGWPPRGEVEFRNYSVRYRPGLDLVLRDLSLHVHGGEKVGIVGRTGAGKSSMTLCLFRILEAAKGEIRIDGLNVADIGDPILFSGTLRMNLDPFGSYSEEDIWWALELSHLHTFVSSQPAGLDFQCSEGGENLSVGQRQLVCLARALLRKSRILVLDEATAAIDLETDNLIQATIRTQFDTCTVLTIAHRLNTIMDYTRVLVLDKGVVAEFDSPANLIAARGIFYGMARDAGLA
Sequence of Multidrug resistance-associated protein 1 (P33527 whole entry): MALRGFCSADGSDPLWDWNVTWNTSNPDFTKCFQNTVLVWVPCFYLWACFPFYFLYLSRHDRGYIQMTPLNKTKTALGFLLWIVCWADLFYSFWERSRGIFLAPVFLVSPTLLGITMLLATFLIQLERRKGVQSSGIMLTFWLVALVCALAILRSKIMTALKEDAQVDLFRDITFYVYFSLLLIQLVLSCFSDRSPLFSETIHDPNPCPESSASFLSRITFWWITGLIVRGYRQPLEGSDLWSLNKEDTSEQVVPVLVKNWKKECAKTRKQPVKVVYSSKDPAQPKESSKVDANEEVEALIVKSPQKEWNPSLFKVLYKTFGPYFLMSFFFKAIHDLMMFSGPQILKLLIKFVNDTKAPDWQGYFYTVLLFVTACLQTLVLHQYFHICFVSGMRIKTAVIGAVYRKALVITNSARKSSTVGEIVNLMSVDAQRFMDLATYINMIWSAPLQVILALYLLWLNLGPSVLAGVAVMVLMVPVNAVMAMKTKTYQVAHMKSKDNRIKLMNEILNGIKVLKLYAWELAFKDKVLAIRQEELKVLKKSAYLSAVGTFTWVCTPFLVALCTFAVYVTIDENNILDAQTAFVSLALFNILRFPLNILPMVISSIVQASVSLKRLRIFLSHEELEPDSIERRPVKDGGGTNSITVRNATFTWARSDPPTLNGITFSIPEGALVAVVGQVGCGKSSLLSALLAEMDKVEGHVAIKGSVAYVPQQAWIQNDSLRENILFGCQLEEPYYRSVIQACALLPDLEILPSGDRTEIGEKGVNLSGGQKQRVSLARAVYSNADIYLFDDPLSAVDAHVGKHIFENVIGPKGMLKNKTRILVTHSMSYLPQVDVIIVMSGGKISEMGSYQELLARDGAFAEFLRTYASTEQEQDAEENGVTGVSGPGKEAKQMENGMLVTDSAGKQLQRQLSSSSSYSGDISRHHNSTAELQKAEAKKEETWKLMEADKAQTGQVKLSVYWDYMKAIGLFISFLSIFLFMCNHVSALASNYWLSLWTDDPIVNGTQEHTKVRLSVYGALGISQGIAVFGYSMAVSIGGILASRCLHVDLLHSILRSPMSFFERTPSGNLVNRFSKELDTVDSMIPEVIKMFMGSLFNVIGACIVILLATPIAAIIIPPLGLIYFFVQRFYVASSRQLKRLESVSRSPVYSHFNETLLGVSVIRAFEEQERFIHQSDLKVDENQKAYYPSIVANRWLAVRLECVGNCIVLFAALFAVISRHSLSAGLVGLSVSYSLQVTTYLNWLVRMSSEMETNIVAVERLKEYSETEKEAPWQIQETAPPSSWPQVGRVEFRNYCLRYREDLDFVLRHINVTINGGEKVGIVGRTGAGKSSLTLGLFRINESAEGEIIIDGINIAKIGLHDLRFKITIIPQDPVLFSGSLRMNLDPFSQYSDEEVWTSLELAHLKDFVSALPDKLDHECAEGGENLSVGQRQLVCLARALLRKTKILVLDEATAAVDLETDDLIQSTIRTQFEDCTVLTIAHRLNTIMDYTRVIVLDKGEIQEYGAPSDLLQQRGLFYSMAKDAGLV

SMILES: CCCCC[C@H](O)/C=C/[C@H]1[C@H](O)CC(=O)[C@@H]1C/C=C\CCCC(=O)O [DINOPROSTONE]
- activity at 20 µM [5]: 74%

SMILES: O=C(O)Cc1ccccc1Nc1c(Cl)cccc1Cl [DICLOFENAC]
- Activity [6]: 82%
- activity at 100 µM [7]: 61%

SMILES: CCCCC[C@H](O)/C=C/[C@@H]1[C@@H](C/C=C\CCCC(=O)O)[C@@H](O)C[C@H]1O [DINOPROST]
- Activity [9]: 15%
- activity at 20 µM [10]: 63%

SMILES: Cc1ccc(-c2cc(C(F)(F)F)nn2-c2ccc(S(N)(=O)=O)cc2)cc1 [CELECOXIB]
- Activity [11]: 78%

Now from value to molecule:

- Activity [1]: 80%
SMILES: CS(=O)(=O)c1ccc(C2=C(c3ccccc3)C(=O)OC2)cc1 [ROFECOXIB]

- Activity [2]: 76%
- activity at 20 µM [3]: 51%
- Activity [4]: 2%
SMILES: CCCCC[C@H](O)/C=C/[C@H]1C=CC(=O)[C@@H]1CCCCCCC(=O)O [PROSTAGLANDIN A1]

- Activity [8]: 35%
SMILES: CC(C(=O)O)c1cccc(C(=O)c2ccccc2)c1 (stereo unspecified) [KETOPROFEN]
